According to PubChem BioAssay (NCI):
Where “and” joins values, the source holds several entries; their conditions need not be identical. Equal values may be shown once.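 Following 48 hours of exposure in 96-well plates, responses at five concentrations were used to interpolate endpoints linearly. GI50 = concentration required for 50% inhibition of growth. TGI: concentration producing complete growth inhibition.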

Key:
Assay in all cases: growth of human tumour cells (NCI), 48 h
SF-295 CNS = test system: SF-295 CNS
ACHN renal = test system: ACHN renal
RPMI-8226 leukemia = test system: RPMI-8226 leukemia
UACC-257 melanoma = test system: UACC-257 melanoma
MOLT-4 leukemia = test system: MOLT-4 leukemia
HT29 colon = test system: HT29 colon
OVCAR-3 ovarian = test system: OVCAR-3 ovarian
RXF 393 renal = test system: RXF 393 renal
PC-3 prostate = test system: PC-3 prostate
NCI/ADR-RES ovarian = test system: NCI/ADR-RES ovarian

Structure (SMILES)	TGI (SF-295 CNS) [µM]	TGI (ACHN renal)	TGI (RPMI-8226 leukemia)	TGI (UACC-257 melanoma)	TGI (MOLT-4 leukemia)	TGI (HT29 colon)	TGI (OVCAR-3 ovarian)	GI50 (SF-295 CNS) [µM]	GI50 (ACHN renal) [µM]	GI50 (RPMI-8226 leukemia) [nM]	GI50 (UACC-257 melanoma) [µM]	GI50 (MOLT-4 leukemia) [µM]	GI50 (RXF 393 renal)	TGI (RXF 393 renal)	GI50 (HT29 colon) [µM]	GI50 (OVCAR-3 ovarian) [µM]	GI50 (PC-3 prostate) [nM]	TGI (PC-3 prostate) [µM]	GI50 (NCI/ADR-RES ovarian) [µM]	TGI (NCI/ADR-RES ovarian) [µM]
NC1=NN(c2ccccc2)C(=O)C1/C(=N\NC(=O)c1cc2ccccc2cc1O)C(=O)Nc1ccc(Cl)cc1 (configuration not stated)	> 100	> 100 µM	96.1 µM	80.4 µM	40.5 µM	> 100 µM	> 100 µM	–	–	–	–	–	–	–	–	–	–	–	–	–
CCOC(=O)Oc1ccc2[nH]c3c(C)cc(N)c(C)c3c2c1	> 100	> 100 µM	> 100 µM	> 100 µM	> 100 µM	> 100 µM	> 100 µM	–	–	–	–	–	–	–	–	–	–	–	–	–
CC(C)=NO.CC(C)=NO.CC(C)=NO.CC(C)=NO.[Ti]	> 100	> 100 µM	> 100 µM	> 100 µM	> 100 µM	> 100 µM	> 100 µM	> 100	> 100	> 100000	> 100	> 100	> 100 µM	> 100 µM	> 100	> 100	–	–	–	–
Nc1ccc2ncc(Nc3ccc(Cl)c(Cl)c3)nc2c1	49.9	86.3 µM	> 100 µM	54.6 µM	65.1 µM	34.9 µM	40.1 µM	–	–	–	–	–	–	55.2 µM	–	–	–	–	–	–
O=C(Nc1ccccc1)Oc1ccccc1C1CCCCC1	51.2	–	52 µM	40.2 µM	> 100 µM	51.6 µM	34.7 µM	–	–	–	–	–	–	21.9 µM	–	–	–	–	–	–
Cn1nc(-c2ccccc2)c(C(=O)/C=C/c2ccccc2)c(N2CCCC2)c1=O	–	41.5 µM	29.3 µM	–	22.3 µM	26.9 µM	–	–	–	–	–	–	–	23.9 µM	–	–	–	–	–	–
CC1=CC(=O)N2[C@H](OC[C@@H]2C(C)C)O1	> 100	> 100 µM	> 100 µM	> 100 µM	> 100 µM	> 100 µM	> 100 µM	–	–	–	–	–	–	> 100 µM	–	–	–	–	–	–
CN1OC(CO)CC12C1CC3CC(C1)CC2C3 (configuration not stated)	> 100	> 100 µM	> 100 µM	–	> 100 µM	> 100 µM	> 100 µM	–	–	–	–	–	–	> 100 µM	–	–	–	–	–	–
COc1cccc(OC)c1/C=N\N1C(=O)c2ccccc2C1=O	> 100	> 100 µM	> 100 µM	> 100 µM	> 100 µM	> 100 µM	44.1 µM	–	–	–	–	–	–	62.1 µM	–	–	–	–	–	–
Cc1cc2c(=O)cc(-c3ccncc3)oc2c(C(=O)O)c1C	> 100	> 100 µM	> 100 µM	> 100 µM	> 100 µM	> 100 µM	> 100 µM	–	–	–	–	–	–	> 100 µM	–	–	–	–	–	–
CC(=O)OCC1OC(OC(C)=O)C(NC#N)C(OC(C)=O)C1OC(C)=O (configuration not stated)	> 100	> 100 µM	> 100 µM	–	> 100 µM	> 100 µM	> 100 µM	–	–	–	–	–	–	> 100 µM	–	–	–	–	–	–
CCNC(=O)O/N=C1/C=C2CC[C@@H]3C(CC[C@@]4(C)C3CC[C@@H]4OC(=O)NCC)[C@@]2(C)CC1 (some centres not stated)	7.03	11.6 µM	7.02 µM	11.1 µM	5.44 µM	10.3 µM	–	–	–	–	–	–	–	5.3 µM	–	–	–	–	–	–
COC(=O)N/N=C(\c1nc2ccc(Cl)cc2[nH]c1=O)C(O)c1ccc([N+](=O)[O-])cc1 (configuration not stated)	> 100	–	> 100 µM	> 100 µM	> 100 µM	> 100 µM	> 100 µM	–	–	–	–	–	–	> 100 µM	–	–	–	–	–	–
O=c1cccccc1[O-].O=c1cccccc1[O-].O=c1cccccc1[O-].[Dy+3]	> 100	> 100 µM	76.2 µM	> 100 µM	46.2 µM	> 100 µM	41.1 µM	–	–	–	–	–	–	79 µM	–	–	–	–	–	–
CN(C)C(=O)c1cc2cnc(Nc3ccc(N4CCNCC4)cn3)nc2n1C1CCCC1	42	> 100 µM	30 µM	33.4 µM	34.5 µM	> 100 µM	69.2 µM	13.1	7.89	2620	15.7	1.8	–	–	3.28	21	1010	62.9	37.8	> 100
O=[N+]([O-])C1(CO)COC(CCc2ccccc2)OC1 (configuration not stated)	> 100	> 100 µM	–	> 100 µM	> 100 µM	> 100 µM	> 100 µM	–	–	–	–	–	–	> 100 µM	–	–	–	–	–	–
COC(=O)C1=C(C)C(=O)C2(CCCCCC2C(=O)OC)C1 (configuration not stated)	> 100	> 100 µM	> 100 µM	> 100 µM	> 100 µM	> 100 µM	–	–	–	–	–	–	–	> 100 µM	–	–	–	–	–	–
Cc1[nH]n(C(=O)c2ccc(Cl)cc2)c(=O)c1/C=C1\C(O)=CC(=O)c2ccccc21	> 100	> 100 µM	> 100 µM	> 100 µM	> 100 µM	> 100 µM	> 100 µM	–	–	–	–	–	–	> 100 µM	–	–	–	–	–	–

Structure (SMILES)	TGI (SF-295 CNS) [µM]	TGI (ACHN renal)	TGI (RPMI-8226 leukemia)	TGI (UACC-257 melanoma)	TGI (MOLT-4 leukemia)	TGI (HT29 colon)	TGI (OVCAR-3 ovarian)	GI50 (SF-295 CNS) [µM]	GI50 (ACHN renal) [µM]	GI50 (RPMI-8226 leukemia) [nM]	GI50 (UACC-257 melanoma) [µM]	GI50 (MOLT-4 leukemia) [µM]	GI50 (RXF 393 renal)	TGI (RXF 393 renal)	GI50 (HT29 colon) [µM]	GI50 (OVCAR-3 ovarian) [µM]	GI50 (PC-3 prostate) [nM]	TGI (PC-3 prostate) [µM]	GI50 (NCI/ADR-RES ovarian) [µM]	TGI (NCI/ADR-RES ovarian) [µM]
Cc1c(C(=O)C/C(=N/NC(=O)CC#N)C(N)=O)[n+](=O)c2ccccc2n1[O-]	> 100	> 100 µM	> 100 µM	> 100 µM	> 100 µM	> 100 µM	61.8 µM	–	–	–	–	–	–	> 100 µM	–	–	–	–	–	–
CC1=C2[C@@H](c3ccccc3)C3C=CC2(C=C3C(F)(F)F)N(C(=O)NC2CCCCC2)C1=O (some centres not stated)	> 100	> 100 µM	–	> 100 µM	> 100 µM	> 100 µM	> 100 µM	–	–	–	–	–	–	> 100 µM	–	–	–	–	–	–
O=[N+]([O-])c1cccc(C2=NOC3CCCC23)c1 (configuration not stated)	> 100	> 100 µM	> 100 µM	> 100 µM	> 100 µM	> 100 µM	> 100 µM	–	–	–	–	–	–	–	–	–	–	–	–	–
CCOC(=O)c1c(/C=N\Nc2ccccc2)nc2ccccc2c1-c1ccccc1	> 100	> 100 µM	83.8 µM	> 100 µM	68.8 µM	> 100 µM	> 100 µM	–	–	–	–	–	–	> 100 µM	–	–	–	–	–	–
Cc1c2cc[n+](C)cc2c(C)c2c1[nH]c1ccc(Oc3ccccc3)cc12	–	> 38.4 µM and 19 µM	23.8 µM and 16.1 µM	6.96 µM and 8.42 µM	> 43.7 µM and 12.7 µM	21.2 µM and 29 µM	> 37.6 µM and 31.7 µM	–	–	–	–	–	> 100 µM and 11 µM	> 100 µM and 59.4 µM	–	–	–	–	–	–
COc1cc(/C=C/C(=O)c2c(-c3ccc(Cl)cc3)nc3sc(C)nn23)cc(OC)c1OC	> 100	> 100 µM	5.78 µM	> 100 µM	> 100 µM	> 100 µM	> 100 µM	30	20.8	1820	16	7.59	17.3 µM	> 100 µM	77.7	35.7	–	–	7.85	> 100
NC(=O)NC(=O)C1CCC(=O)N1S(=O)(=O)c1ccc(Cl)cc1 (configuration not stated)	> 100	> 100 µM	> 100 µM	> 100 µM	> 100 µM	> 100 µM	> 100 µM	–	–	–	–	–	–	> 100 µM	–	–	–	–	–	–
CCCNc1ncnc2c1cnn2C	> 100	> 100 µM	> 100 µM	> 100 µM	> 100 µM	> 100 µM	> 100 µM	–	–	–	–	–	–	–	–	–	–	–	–	–
CCOC(=O)NC/C=C/CO	–	> 100 µM	> 100 µM	> 100 µM	> 100 µM	–	–	–	–	–	–	–	–	> 100 µM	–	–	–	–	–	–
CCOC(=O)/C(=C/c1ccc[nH]1)P(=O)(OCC)OCC	> 100	> 100 µM	> 100 µM	> 100 µM	> 100 µM	> 100 µM	> 100 µM	–	–	–	–	–	–	> 100 µM	–	–	–	–	–	–
CN(C)c1ccc(/C=C2\Cc3ccccc3C2=O)cc1Br	> 100	> 100 µM	84.3 µM	> 100 µM	93.5 µM	> 100 µM	> 100 µM	–	–	–	–	–	–	–	–	–	–	–	–	–
Cn1ncc2c(c1=O)Nc1ccccc1S2(=O)=O	> 100	> 100 µM	97.6 µM	> 100 µM	> 100 µM	> 100 µM	> 100 µM	–	–	–	–	–	–	–	–	–	–	–	–	–
Cc1nc(-c2cccnc2)sc1C(=O)/C=C/c1ccc(Cl)cc1Cl	> 100	> 100 µM	> 100 µM	> 100 µM	> 100 µM	> 100 µM	> 100 µM	–	–	–	–	–	–	> 100 µM	–	–	–	–	–	–
NC1CC(n2ccc(=O)[nH]c2=O)OC1C(O)CO (configuration not stated)	> 100	> 100 µM	> 100 µM	> 100 µM	> 100 µM	> 100 µM	> 100 µM	–	–	–	–	–	–	> 100 µM	–	–	–	–	–	–
CC(=O)Nc1ccc(C(=O)NN2C(=O)CSC2c2ccccc2)cc1 (configuration not stated)	> 100	> 100 µM	> 100 µM	> 100 µM	> 100 µM	> 100 µM	> 100 µM	–	–	–	–	–	–	> 100 µM	–	–	–	–	–	> 100
COC(=O)CCSC(=O)Nc1ccccc1Cl	> 100	> 100 µM	> 100 µM	> 100 µM	> 100 µM	> 100 µM	> 100 µM	–	–	–	–	–	–	–	–	–	–	–	–	–
Clc1ccc(N=CNc2ccc(-c3nc4ccccc4[nH]3)cc2)cc1	> 100	> 100 µM	> 100 µM	> 100 µM	> 100 µM	–	> 100 µM	6.18	> 100	7570	> 100	> 100	> 100 µM	> 100 µM	–	5.35	> 100000	> 100	–	–
CCCCCCCCCCCCCCCC(=O)NCC(OCC)OCC	> 100	> 100 µM	–	> 100 µM	–	> 100 µM	> 100 µM	–	–	–	–	–	–	> 100 µM	–	–	–	–	–	–
